Data reported in BigSolDB 2.1.

C[C@@H]1CC[C@@]2(OC1)O[C@H]1C[C@H]3[C@@H]4CC=C5C[C@@H](O)CC[C@]5(C)[C@H]4CC[C@]3(C)[C@H]1[C@@H]2C
solubility (mole fraction) (in ethanol, 289.15 K): 0.00106 | solubility (mole fraction) (in ethanol, 301.05 K): 0.00147 | solubility (mole fraction) (in ethanol, 305.75 K): 0.0017 | solubility (mole fraction) (in ethanol, 312.35 K): 0.00188 | solubility (mole fraction) (in ethanol, 312.65 K): 0.00196 | solubility (mole fraction) (in ethanol, 316.65 K): 0.00227 | solubility (mole fraction) (in ethanol, 320.25 K): 0.00253 | solubility (mole fraction) (in ethanol, 322.35 K): 0.00269 | solubility (mole fraction) (in ethanol, 324.05 K): 0.0029 | solubility (mole fraction) (in ethanol, 325.65 K): 0.00306 | solubility (mole fraction) (in ethanol, 327.65 K): 0.00324 | solubility (mole fraction) (in ethanol, 329.05 K): 0.00338 | solubility (mole fraction) (in ethanol, 331.25 K): 0.00353 | solubility (mole fraction) (in ethanol, 332.35 K): 0.00372 | solubility (mole fraction) (in ethanol, 334.15 K): 0.00388 | solubility (mole fraction) (in isobutanol, 305.15 K): 0.00236 | solubility (mole fraction) (in isobutanol, 306.95 K): 0.00266 | solubility (mole fraction) (in isobutanol, 307.65 K): 0.00296 | solubility (mole fraction) (in isobutanol, 308.65 K): 0.00332 | solubility (mole fraction) (in isobutanol, 310.15 K): 0.00364 | solubility (mole fraction) (in isobutanol, 311.65 K): 0.00416 | solubility (mole fraction) (in isobutanol, 312.95 K): 0.00456 | solubility (mole fraction) (in isobutanol, 313.85 K): 0.00499 | solubility (mole fraction) (in isobutanol, 314.85 K): 0.0054 | solubility (mole fraction) (in isobutanol, 316.15 K): 0.00582 | solubility (mole fraction) (in isobutanol, 317.65 K): 0.00625 | solubility (mole fraction) (in isobutanol, 319.65 K): 0.00672 | solubility (mole fraction) (in isobutanol, 320.65 K): 0.0071 | solubility (mole fraction) (in isobutanol, 322.15 K): 0.00754 | solubility (mole fraction) (in isobutanol, 323.85 K): 0.00797 | solubility (mole fraction) (in isobutanol, 325.15 K): 0.00836 | solubility (mole fraction) (in isobutanol, 326.95 K): 0.00884 | solubility (mole fraction) (in isobutanol, 328.65 K): 0.00931 | solubility (mole fraction) (in isobutanol, 330.65 K): 0.00979 | solubility (mole fraction) (in isooctanol, 296.55 K): 0.0073 | solubility (mole fraction) (in isooctanol, 298.55 K): 0.00809 | solubility (mole fraction) (in isooctanol, 299.75 K): 0.0091 | solubility (mole fraction) (in isooctanol, 303.15 K): 0.00992 | solubility (mole fraction) (in isooctanol, 305.65 K): 0.0106 | solubility (mole fraction) (in isooctanol, 307.15 K): 0.0114 | solubility (mole fraction) (in isooctanol, 309.25 K): 0.012 | solubility (mole fraction) (in isooctanol, 311.85 K): 0.0129 | solubility (mole fraction) (in isooctanol, 314.65 K): 0.0139 | solubility (mole fraction) (in isooctanol, 315.95 K): 0.0146 | solubility (mole fraction) (in isooctanol, 318.25 K): 0.0154 | solubility (mole fraction) (in isooctanol, 321.05 K): 0.0163 | solubility (mole fraction) (in isooctanol, 323.25 K): 0.017 | solubility (mole fraction) (in isooctanol, 324.95 K): 0.0177 | solubility (mole fraction) (in isooctanol, 326.55 K): 0.0185 | solubility (mole fraction) (in isooctanol, 327.45 K): 0.0192 | solubility (mole fraction) (in isooctanol, 329.75 K): 0.0199 | solubility (mole fraction) (in n-butanol, 295.75 K): 0.00469 | solubility (mole fraction) (in n-butanol, 298.15 K): 0.0052 | solubility (mole fraction) (in n-butanol, 300.15 K): 0.00572 | solubility (mole fraction) (in n-butanol, 304.65 K): 0.00624 | solubility (mole fraction) (in n-butanol, 307.65 K): 0.00659 | solubility (mole fraction) (in n-butanol, 309.65 K): 0.00694 | solubility (mole fraction) (in n-butanol, 311.55 K): 0.00731 | solubility (mole fraction) (in n-butanol, 312.65 K): 0.00767 | solubility (mole fraction) (in n-butanol, 314.25 K): 0.00805 | solubility (mole fraction) (in n-butanol, 315.85 K): 0.0084 | solubility (mole fraction) (in n-butanol, 317.35 K): 0.00914 | solubility (mole fraction) (in n-butanol, 319.15 K): 0.00956 | solubility (mole fraction) (in n-butanol, 320.65 K): 0.00996 | solubility (mole fraction) (in n-butanol, 323.45 K): 0.0105 | solubility (mole fraction) (in n-butanol, 325.45 K): 0.011 | solubility (mole fraction) (in n-butanol, 326.45 K): 0.0114 | solubility (mole fraction) (in n-butanol, 328.45 K): 0.012 | solubility (mole fraction) (in n-pentanol, 290.75 K): 0.00406 | solubility (mole fraction) (in n-pentanol, 292.75 K): 0.00455 | solubility (mole fraction) (in n-pentanol, 296.15 K): 0.00507 | solubility (mole fraction) (in n-pentanol, 299.65 K): 0.00566 | solubility (mole fraction) (in n-pentanol, 301.55 K): 0.00615 | solubility (mole fraction) (in n-pentanol, 304.15 K): 0.00663 | solubility (mole fraction) (in n-pentanol, 307.65 K): 0.00722 | solubility (mole fraction) (in n-pentanol, 309.85 K): 0.00775 | solubility (mole fraction) (in n-pentanol, 312.45 K): 0.00838 | solubility (mole fraction) (in n-pentanol, 314.45 K): 0.00888 | solubility (mole fraction) (in n-pentanol, 316.75 K): 0.00933 | solubility (mole fraction) (in n-pentanol, 317.35 K): 0.00978 | solubility (mole fraction) (in n-pentanol, 318.75 K): 0.0105 | solubility (mole fraction) (in n-pentanol, 320.65 K): 0.0111 | solubility (mole fraction) (in n-pentanol, 322.65 K): 0.0116 | solubility (mole fraction) (in n-pentanol, 324.15 K): 0.0123 | solubility (mole fraction) (in n-pentanol, 325.75 K): 0.0128 | solubility (mole fraction) (in n-pentanol, 327.15 K): 0.0134 | solubility (mole fraction) (in n-pentanol, 329.15 K): 0.0139 | solubility (mole fraction) (in n-propanol, 290.15 K): 0.00163 | solubility (mole fraction) (in n-propanol, 292.95 K): 0.00205 | solubility (mole fraction) (in n-propanol, 295.55 K): 0.00243 | solubility (mole fraction) (in n-propanol, 301.75 K): 0.00278 | solubility (mole fraction) (in n-propanol, 305.25 K): 0.00307 | solubility (mole fraction) (in n-propanol, 307.95 K): 0.0034 | solubility (mole fraction) (in n-propanol, 310.95 K): 0.0039 | solubility (mole fraction) (in n-propanol, 314.75 K): 0.00424 | solubility (mole fraction) (in n-propanol, 318.15 K): 0.00473 | solubility (mole fraction) (in n-propanol, 320.05 K): 0.00506 | solubility (mole fraction) (in n-propanol, 322.75 K): 0.00542 | solubility (mole fraction) (in n-propanol, 326.35 K): 0.0059 | solubility (mole fraction) (in n-propanol, 327.85 K): 0.00622 | solubility (mole fraction) (in n-propanol, 329.25 K): 0.00663 | solubility (mole fraction) (in n-propanol, 330.65 K): 0.00696 | solubility (mole fraction) (in n-propanol, 332.65 K): 0.0073 | solubility (mole fraction) (in tert-butanol, 302.15 K): 0.000811 | solubility (mole fraction) (in tert-butanol, 304.65 K): 0.00108 | solubility (mole fraction) (in tert-butanol, 306.65 K): 0.00134 | solubility (mole fraction) (in tert-butanol, 308.15 K): 0.00151 | solubility (mole fraction) (in tert-butanol, 310.65 K): 0.00175 | solubility (mole fraction) (in tert-butanol, 312.15 K): 0.00198 | solubility (mole fraction) (in tert-butanol, 313.65 K): 0.00223 | solubility (mole fraction) (in tert-butanol, 314.15 K): 0.00244 | solubility (mole fraction) (in tert-butanol, 315.95 K): 0.00274 | solubility (mole fraction) (in tert-butanol, 317.75 K): 0.00307 | solubility (mole fraction) (in tert-butanol, 321.15 K): 0.00343 | solubility (mole fraction) (in tert-butanol, 323.15 K): 0.00368 | solubility (mole fraction) (in tert-butanol, 325.15 K): 0.00392 | solubility (mole fraction) (in tert-butanol, 326.65 K): 0.00427 | solubility (mole fraction) (in tert-butanol, 328.65 K): 0.00467 | solubility (mole fraction) (in tert-butanol, 330.75 K): 0.00497 | solubility (mole fraction) (in tert-butanol, 332.45 K): 0.00529
